We go through 29 compounds from US9611232B2, “Oxazolidinone and imidazolidinone compounds” (Hoffmann-La Roche Inc., priority 2012, dated 2017).

pIC50: −log10 of the molar value. Where “and” joins values, the source holds several entries; their conditions need not be identical. Equal entries are not always repeated.

This assay concerns the target KCa3.1 (Homo sapiens (Human), UniProt O15554). Briefly: Thallium influx assay (FLIPR, FluxOR). Type of assay: cell-based. The settings on record: CHOK1 cells over-expressing KCa3.1; thallium (3.3 mM)/ionomycin (1 μM) activation. Here is the method:
The thallium influx assay was performed with CHOK1 cells over-expressing KCa3.1 obtained from Evotec and maintained in MEM Alpha medium supplemented with 10% fetal bovine serum, 100 U/ml penicillin/[…] streptomycin and 250 μg/ml G418.
CHOK1 wild type cells were passaged using F12/Ham's medium supplemented with 10% fetal bovine serum, 2 mM glutamine, 100 U/ml penicillin/[…] streptomycin. All cells were cultured in T175 flasks.
Before the day of the assay, cells were harvested from culture flasks using standard trypsin digestion. Cells were counted and densities adjusted and dispensed into 384-well poly-D-lysine coated plates at 7500 […], assay plates were incubated overnight in CO2 incubator at 37° C.
The following day, growth media was removed followed by the addition of 25 ul/well of FluxOR™ (Invitrogen) loading dye in a gluconate based assay buffer (135 mM NaGluconate,
2.5 mM Kgluconate, 2 mM CaNO3, 1 mM MgNO3, 10 mM HEPES (acid), 5 mM glucose pH adjusted to 7.4). Assay plates were incubated for 1 hour at 37° C. The loading dye was then replaced with gluconate assay buffer containing probenecid.
Compounds diluted in gluconate buffer were transferred into the assay plates (25 μl/well) followed by incubation for 20 minutes at room temperature. The assay plates were then transferred to a Fluorometric Imaging Plate Reader (FLIPR), a baseline was read for twenty second capture, followed by the addition of 25 μl/well of channel activation solution in gluconate buffer—for KCa3.1 cells thallium (3.3 mM)/ionomycin(1 μM) was used and for the wild type, ionomycin only, then fluorescence was monitored for another 90 seconds.

One may read the pIC50 as the negative decadic logarithm of the IC50, by convention in mol/L. `NC(=O)CN1C(=O)OC(c2ccc(F)c(F)c2)(c2ccc(F)c(F)c2)[C@@H]1c1ccccc1` [Example 28, (S)-2-(5,5-bis(3,4-difluorophenyl)-2-oxo-4-phenyloxazolidin-3-yl)acetamide] had a negative-log IC50 (pIC50) of 6.11. For `CNC(=O)CN1C(=O)OC(c2ccc(F)cc2)(c2ccc(F)cc2)[C@@H]1c1ccccc1F` [Example 22, (S)-2-(4-(2-fluorophenyl)-5,5-bis(4-fluorophenyl)-2-oxooxazolidin-3-yl)-N-methylacetamide], the negative-log IC50 (pIC50) is 6.22.

For the compound `CCOC(=O)CN1C(=O)OC(c2cccc(F)c2)(c2cccc(F)c2)[C@@H]1c1ccccc1F` [Example 14, [(S)-5,5-Bis-(3-fluoro-phenyl)-4-(2-fluoro-phenyl)-2-oxo-oxazolidin-3-yl]-acetic acid ethyl ester], the negative-log IC50 (pIC50) was 5.44. Take `CCOC(=O)CN1C(=O)O[C@@H](c2ccc(F)cc2)[C@H]1c1cccc(C(F)(F)F)c1` (racemic) [Example 31, [(4RS,5SR)-5-(4-Fluoro-phenyl)-2-oxo-4-(3-trifluoromethyl-phenyl)-oxazolidin-3-yl]-acetic acid ethyl ester]: the negative-log IC50 (pIC50) was 5.12. Compared with the last compound, the pIC50 is 0.32 log units lower.

The compound `CCOC(=O)CN1C(=O)OC(c2ccccc2F)(c2ccccc2F)[C@@H]1c1ccccc1F` [Example 12, [(S)-4,5,5-Tris-(2-fluoro-phenyl)-2-oxo-oxazolidin-3-yl]acetic acid ethyl ester] gave a pIC50 of 5.96.

Take `N#CCN1C(=O)O[C@@H](c2cccc(C(F)(F)F)c2)[C@H]1c1ccc(F)cc1` (racemic) [Example 38]: the pIC50 was 5.80.

As for `Cc1ccccc1[C@@H]1N(CC(N)=O)C(=O)OC1(c1ccc(F)cc1)c1ccc(F)cc1` [Example 20, 2-[(S)-5,5-Bis-(4-fluoro-phenyl)-2-oxo-4-o-tolyl-oxazolidin-3-yl]-acetamide], the pIC50 is 5.66. The result for `NC(=O)CN1C(=O)OC(c2ccc(F)cc2)(c2ccc(F)cc2)[C@@H]1c1ccc(F)cc1F` [Example 5, 2-[(S)-4-(2,4-Difluoro-phenyl)-5,5-bis-(4-fluoro-phenyl)-2-oxo-oxazolidin-3-yl]-acetamide] reads 6.18 and 5.94. Compound `NC(=O)CN1C(=O)OC(c2cccc(Cl)c2)(c2cccc(Cl)c2)[C@@H]1c1ccccc1` [Example 29, 2-[(S)-5,5-Bis-(3-chloro-phenyl)-2-oxo-4-phenyl-oxazolidin-3-yl]-acetamide] gave a negative-log IC50 (pIC50) of 5.17.

`CCOC(=O)CN1C(=O)O[C@@H](c2cccc(C(F)(F)F)c2)[C@H]1c1cccc(C(F)(F)F)c1` (racemic) [Example 33]: the pIC50 was 5.81. Compared with the last compound, the pIC50 is 0.64 log units higher. `CCOC(=O)CN1C(=O)OC(c2ccc(F)cc2)(c2ccc(F)cc2)C1c1cccnc1` (centres unmarked) [Example 26, Ethyl 2-(5,5-bis(4-fluorophenyl)-2-oxo-4-(pyridin-3-yl)oxazolidin-3-yl)acetate] had a pIC50 of 5.04.

Turning to `CCOC(=O)CN1C(=O)OC(c2ccc(F)cc2)(c2ccc(F)cc2)[C@@H]1c1ccccc1F` [Example 10, [5,5-Bis-(4-fluoro-phenyl)-4-(2-fluoro-phenyl)-2-oxo-oxazolidin-3-yl]-acetic acid ethyl ester], the pIC50 was 5.72. This pIC50 is 0.68 log units higher than that of the compound before. The result for `Cc1coc(CN2C(=O)O[C@@H](c3cccc(C(F)(F)F)c3)[C@H]2c2ccc(F)cc2)n1` (racemic) [Example 40] reads 5.16; that for `CNC(=O)CN1C(=O)O[C@@H](c2cccc(C(F)(F)F)c2)[C@H]1c1ccc(F)cc1` (racemic) [Example 36], 5.18. `CCOC(=O)CN1C(=O)OC(c2ccccc2)(c2ccccc2)[C@@H]1c1ccccc1F` [Example 16, [(S)-4-(2-Fluoro-phenyl)-2-oxo-5,5-diphenyl-oxazolidin-3-yl]-acetic acid ethyl ester] gave a pIC50 of 6.00. Regarding `CCOC(=O)CN1C(=O)OC(c2ccc(F)cc2)(c2ccc(F)cc2)[C@@H]1c1ccc(F)cc1` [Example 6, [(S)-4,5,5-Tris-(4-fluoro-phenyl)-2-oxo-oxazolidin-3-yl]acetic acid ethyl ester], the pIC50 is 5.87. On to `NC(=O)CN1C(=O)OC(c2ccc(F)cc2)(c2ccc(F)cc2)C1c1cccc(F)c1` (centres unmarked) [Example 9, 2-(4-(3-fluorophenyl)-5,5-bis(4-fluorophenyl)-2-oxooxazolidin-3-yl)acetamide], for which the pIC50 was 5.22. This pIC50 lies 0.65 log units lower than the previous one. `CCOC(=O)CN1C(=O)O[C@@H](c2ccc(F)cc2)[C@H]1c1ccc(F)cc1` (racemic) [Example 34] had a pIC50 of 5.17. As for `NC(=O)CN1C(=O)OC(c2cccc(F)c2)(c2cccc(F)c2)[C@@H]1c1ccccc1` [Example 3, 2-[(S)-5,5-Bis-(3-fluoro-phenyl)-2-oxo-4-phenyl-oxazolidin-3-yl]-acetamide], the negative-log IC50 (pIC50) is 6.20.

Turning to `NC(=O)CN1C(=O)OC(c2ccc(F)cc2)(c2ccc(F)cc2)C1c1ccccn1` (centres unmarked) [Example 30, 2-(5,5-bis(4-fluorophenyl)-2-oxo-4-(pyridin-2-yl)oxazolidin-3-yl)acetamide], the negative-log IC50 (pIC50) is 4.76. Against the preceding compound, the pIC50 is 1.44 log units lower.

`O=C1O[C@@H](c2cccc(C(F)(F)F)c2)[C@@H](c2ccc(F)cc2)N1Cc1ncco1` (racemic) [Example 39, (4RS,5SR)-4-(4-fluorophenyl)-3-(oxazol-2-ylmethyl)-5-(3-(trifluoromethyl)phenyl)oxazolidin-2-one]: the negative-log IC50 (pIC50) is 4.96. `N#CCN1C(=O)OC(c2ccc(F)cc2)(c2ccc(F)cc2)[C@@H]1c1ccccc1F` [Example 24, [(S)-5,5-Bis-(4-fluoro-phenyl)-4-(2-fluoro-phenyl)-2-oxo-oxazolidin-3-yl]-acetonitrile] had a pIC50 of 5.83. In the case of `CCOC(=O)CN1C(=O)OC(c2ccc(F)cc2)(c2ccc(F)cc2)[C@@H]1C(C)(C)C` [Example 35, [(S)-4-tert-Butyl-5,5-bis-(4-fluoro-phenyl)-2-oxo-oxazolidin-3-yl]-acetic acid ethyl ester], the negative-log IC50 (pIC50) was 6.35. Turning to `CCOC(=O)CN1C(=O)OC(c2ccc(F)cc2)(c2ccc(F)cc2)C1c1ccc(F)cc1F` (centres unmarked) [Example 4, [4-(2,4-Difluoro-phenyl)-5,5-bis-(4-fluoro-phenyl)-2-oxo-oxazolidin-3-yl]-acetic acid ethyl ester], the negative logarithm of the IC50 (pIC50) is 5.50. The result for `O=C1OC(c2ccc(F)cc2)(c2ccc(F)cc2)[C@H](c2ccccc2F)N1Cc1nnc[nH]1` [Example 25, (S)-3-((4H-1,2,4-triazol-3-yl)methyl)-4-(2-fluorophenyl)-5,5-bis(4-fluorophenyl)oxazolidin-2-one] reads 5.00.

The compound `COC(=O)CN1C(=O)OC(c2ccc(F)cc2)(c2ccc(F)cc2)[C@@H]1c1ccccc1F` [Example 21, (S)-methyl 2-(4-(2-fluorophenyl)-5,5-bis(4-fluorophenyl)-2-oxooxazolidin-3-yl)acetate] gave a pIC50 of 6.19. As for `NC(=O)CN1C(=O)OC(c2ccc(F)cc2)(c2ccc(F)cc2)C1c1cccnc1` (centres unmarked) [Example 27, 2-(5,5-bis(4-fluorophenyl)-2-oxo-4-(pyridin-3-yl)oxazolidin-3-yl)acetamide], the negative-log IC50 (pIC50) is 5.17. `NC(=O)CN1C(=O)NC(c2ccc(F)cc2)(c2ccc(F)cc2)[C@@H]1c1ccccc1` [Example 18, (S)-2-(4,4-bis(4-fluorophenyl)-2-oxo-5-phenylimidazolidin-1-yl)acetamide] showed a pIC50 of 5.43. `CCNC(=O)CN1C(=O)OC(c2ccc(F)cc2)(c2ccc(F)cc2)[C@@H]1c1ccccc1F` [Example 23, (S)—N-ethyl-2-(4-(2-fluorophenyl)-5,5-bis(4-fluorophenyl)-2-oxooxazolidin-3-yl)acetamide]: the negative-log IC50 (pIC50) is 5.71.
